Data: US10874103B2, “Antibacterial composition comprising an acetal or a long-chain alkyl hexitane ether” (TEREOS STARCH & SWEETENERS BELGIUM, priority 2014, dated 2020)
Values after ≈ are worked out from the molar mass of the structure shown.

What was measured:
[1] = system: E. faecalis (ATCC® 29212™); experiment: MIC, 96-well microplate microdilution (Example 4); type: cell-based; conditions: 18 h at 37° C.; for MIC: Enterococcus faecalis, ATCC29212, Mueller-Hinton medium, read-out: Minimum inhibitory concentration (MIC) E. faecalis
Description: (§1) The bacteriostatic properties of the derivatives are evaluated by measuring their minimum inhibitory concentration (MIC) on the bacteria tested. Such a measurement is made using the 96-well microplate microdilution method according to the conditions defined below.
(§2) The minimum inhibitory concentrations (MIC) are tested on Gram-positive bacterial strains according to the recommendations of the “Clinical Laboratory Standards Institute” (Clinical-Laboratory-Standards-Institute, 6th ed. Approved standard M100-S17. CLSI, Wayne, Pa., 2007).
(§3) The Gram-positive bacteria studied are as follows: L. monocytogenes (CIP 103575), E. faecalis (ATCC® 29212™) and S. aureus (ATCC® 292213™).
(§4) The cultures studied, freshly isolated (after incubation on a blood agar at 37° C. for 18 h), are taken up in sterile water (10 mL) until a 0.5 McFarland (Mc) suspension i.e. 1 to 2×10^8 CFU (bacteria)/cm^3 is obtained. The bacterial suspension was then diluted to obtain a final concentration of 5×10^5 CFU/cm^3.
(§5) Each well contains an identical quantity of Mueller-Hinton medium (a rich medium for bacterial culture) and bacteria with final 5×10^5 CFU/cm^3.
(§6) The test compounds of interest are solubilized in 2.5% m of ethanol before being diluted to different concentrations two by two.
(§7) On the multiwell plate, a first series has been planned comprising the culture medium without the test compound of interest. It corresponds to the growth control (control well). These controls serve as reference for comparing bacterial growth with that of the subsequent wells comprising different concentrations of the test compound of interest. The second series of wells comprises the mother solution for the test compound of interest for a concentration in the wells of 4 mM. Each series of wells was diluted two by two until the last series for a final concentration of 0.003 mM. Each concentration is duplicated in the same plate. The plate is incubated for 18 h at 37° C. […] If there is antibacterial activity, the bacterial growth is inhibited, which means that no turbidity or bacterial residue is present.
(§8) Tests have been conducted on Gram-positive bacteria with sorbitan derivatives. […] After sterilization the solutions are diluted in water. The results obtained for antimicrobial tests on the 3 bacterial strains L. monocytogenes (CIP 103575), E. faecalis (ATCC® 29212™) and S. aureus (ATCC® 292213™) are summarized in Table 1.

[2] = system: S. aureus (ATCC® 292213™); experiment: MIC, 96-well microplate microdilution (Example 4); type: cell-based; conditions: for MIC: Staphylococcus aureus, ATCC292213, read-out: Minimum inhibitory concentration (MIC) S. aureus; for MIC / Minimum inhibitory concentration (MIC) S. aureus: ATCC 292213, Mueller-Hinton medium, 18 h at 37° C.
Description: as §1, §2, §3, §4, §5, §6, §7, §8

[3] = system: L. monocytogenes (CIP 103575); experiment: MIC, 96-well microplate microdilution (Example 4); type: cell-based; conditions: 18 h at 37° C.; for MIC: Listeria monocytogenes, CIP103575, Mueller-Hinton medium, read-out: Minimum inhibitory concentration (MIC) L. monocytogenes; for Minimum inhibitory concentration (MIC) L. monocytogenes: Mueller-Hinton medium
Description: as §1, §2, §3, §4, §5, §6, §7, §8

[4] = system: L. monocytogenes (CIP 103575), E. faecalis (ATCC® 29212™) and S. aureus (ATCC® 292213™); experiment: MIC microdilution, statements for all three Gram-positive strains together; type: cell-based
Description: as §1, §2, §3, §4, §5, §6
On the multiwell plate, a first series has been planned comprising the culture medium without the test compound of interest. […]

[5] = Critical micelle concentration (surfactant properties, Example 6); type: physicochemical
From the text: The physical, chemical and antimicrobial properties for the best products synthesized have been tested. These analyses show the different surfactant profiles, and the minimum inhibitory concentrations (MIC) for each compound on Gram-positive bacteria. The best surfactant and antimicrobial results are compared in Table 3.

[6] = system: E. faecalis (ATCC® 29212™); experiment: MBC, bacterial count from clear wells reseeded on agar (Example 5); type: cell-based
Description: (§9) To determine whether the agents tested are bactericidal, the minimum bactericidal concentration (MBC) is determined. The MBC corresponds to the concentration leaving a number of bacterial survivors of <4 log. For this, a bacterial count is run from clear wells or without bacterial residue (C≤MIC). To do this, a dilution to 1/100 was conducted with the two wells with the same concentration before seeding on a blood agar using the Spiral technique. After 24 h of incubation at 37° C., the visual count allowed determination of the minimum concentration from which there is no bacterial growth.
(§10) To determine the bactericidal effect of compounds presenting bacteriostatic properties, the wells no longer presenting turbidity were reseeded on agar.

[7] = system: L. monocytogenes (CIP 103575); experiment: as above; type: cell-based
Description: as §9, §10

CCCCCCCC1OCC([C@H]2OCC(O)C2O)O1 (stereo partly drawn) [Example 1c, 5,6-O-Octylidene-1,4-D-sorbitan 1c and 1c′ and 3,5-O-octylidene-1,4-D-sorbitan 1c″ and 1c′″]
MIC [1]: > 4 mM
MIC [2]: > 4 mM
MIC [3]: > 4 mM

CCCCCCCCOCC(O)[C@H]1OCC(O)C1O (stereo partly drawn) [Example 2c, Octyl-1,4-D-sorbitan]
MIC [1]: > 4 mM
MIC [2]: > 4 mM
MIC [3]: > 4 mM

CCCCCC1OCC([C@H]2OCC(O)C2O)O1 (stereo partly drawn) [Example 1b, 5,6-O-Hexylidene-1,4-D-sorbitan 1b and 1b′ and 3,5-O-hexylidene-1,4-D-sorbitan 1b″ and 1b′″]
MIC [1]: > 4 mM
MIC [2]: > 4 mM
MIC [3]: > 4 mM

CCCCC1OCC([C@H]2OCC(O)C2O)O1 (stereo partly drawn) [Example 1a, 5,6-O-Pentylidene-1,4-D-sorbitan 1a and 1a′ and 3,5-O-pentylidene-1,4-D-sorbitan 1a″ and 1a′″]
MIC [1]: > 4 mM
MIC [2]: > 4 mM
MIC [3]: > 4 mM

CCCCCCCCCCOCC(O)[C@H]1OCC(O)C1O (stereo partly drawn) [Example 2d, Decyl-1,4-d-sorbitan]
MIC [1]: > 4 mM
MIC [2]: > 4 mM
MIC [3]: > 4 mM

CCCCCCCCCC1OCC([C@H]2OCC(O)C2O)O1 (stereo partly drawn) [Example 1d, 5,6-O-Decylidene-1,4-D-sorbitan 1d and 1d′ and 3,5-O-decylidene-1,4-D-sorbitan 1d′ and 1d′″]
MIC [1]: > 4 mM
MIC [2]: > 4 mM
MIC [3]: > 4 mM

CCCCCOCC(O)[C@H]1OCC(O)C1O (stereo partly drawn) [Example 2a, Pentyl-1,4-D-sorbitan]
MIC [1]: > 4 mM
MIC [2]: > 4 mM
MIC [3]: > 4 mM

CCCCCCCCCCCC=O [dodecanal, reference compound]
MIC / inhibitory concentration on the bacterial strains studied [4]: > 4 mM

CCCCCCOCC(O)[C@H]1OCC(O)C1O (stereo partly drawn) [Example 2b, Hexyl-1,4-D-sorbitan]
MIC [1]: > 4 mM
MIC [2]: > 4 mM
MIC [3]: > 4 mM

CCCCCCCCCCCC(=O)OCC(O)CO (stereo not drawn) [Monolaurin (ML), monolaurin, reference compound]
Minimum inhibitory concentration (MIC) S. aureus [2]: 0.04 mM (≈ 11 µg/mL)
Minimum inhibitory concentration (MIC) L. monocytogenes [3]: 0.04 mM (≈ 11 µg/mL)

5,6-O-Dodecylidene-1,4-D-sorbitan 1e and 1e′ and 3,5-O-dodecylidene-1,4-D-sorbitan 1e′ and 1e′″ [Example 1e]
Minimum inhibitory concentration (MIC) E. faecalis ([1]; Mueller-Hinton medium): 0.03 mM
bacteriostatic concentration for S. aureus [2]: 0.12 mM
Minimum inhibitory concentration (MIC) S. aureus [2]: 0.12 mM
Minimum inhibitory concentration (MIC) L. monocytogenes [3]: 0.03 mM
CMC (critical micelle concentration) [5]: 0.034 mM
bactericidal concentration for E. faecalis [6]: 0.03 mM
minimum bactericidal concentration (MBC) E. faecalis ([6]; Table 2, reseeded on agar): 0.03 mM
bactericidal concentration for L. monocytogenes [7]: 0.03 mM
minimum bactericidal concentration (MBC) L. monocytogenes ([7]; Table 2, reseeded on agar): 0.03 mM
